In PubChem BioAssay AID652060 (Broad Institute, 2013):
Activity calls are given as the source filed them. The rule behind the calls is not given here.

How the values were obtained:
[1] = false-positive firefly luciferase signal increase – D54 LucT cells, luminescence, dry powder, counter-screen for N-linked glycosylation inhibitor project, dose response (AID 652060); conditions: D54 LucT luciferase counterscreen, luminescence, 24 h; at 19.5 µM (top of the series)
[2] = system: D54 LucT luciferase counterscreen, luminescence, 24 h; assay: as above

SMILES	luciferase activity increase [1]	AC40 [2] [µM]
COc1ccc(CSc2nnc(-c3ccccc3)o2)cc1	50% (inactive)	–
CC(=O)c1cccc(NC(=O)CSc2ncc(C(=O)Nc3ccccc3)c(=O)n2C)c1	33.3% (inactive)	–
CCn1c2ccccc2c2cc(NC(=O)c3cc(OC)c(OC)c(OC)c3)ccc21	-33.3% (inactive)	–
COc1ccc(-c2nnc(SCc3ccccc3)o2)cc1	–	5.12
Cc1cc(C)cc(C(=O)N2CC(=O)Nc3ccccc32)c1	33.3% (inactive)	–
Cc1ccc(C(=O)c2cc([N+](=O)[O-])ccc2N2CCOCC2)cc1C	66.7% (inactive)	–
Cc1ccc(CCC(=O)Nc2ncc(Cc3cc(Cl)ccc3Cl)s2)o1	-33.3% (inactive)	–
Brc1ccc(CSc2nnc(-c3ccccc3)o2)cc1	0% (inactive)	–
COc1ccc2c(COC(=O)c3cccc(S(=O)(=O)NCC(C)C)c3)cc(=O)oc2c1	66.7% (inactive)	–
COc1ccccc1CSc1nnc(-c2ccccc2)o1	–	0.845
CCN(CC)CCOc1ccc2c(c1)C(=NNC(=O)c1ccccn1)c1cc(OCCN(CC)CC)ccc1-2	-33.3% (inactive)	–
Cc1cnc(NC(=O)c2cc(S(=O)(=O)N(C)C)ccc2N2CCCC2)s1	0% (inactive)	–
Nc1nc(=S)c2ncn([C@@H]3O[C@H](CO)[C@@H](O)[C@H]3O)c2[nH]1	–	5.19
CCN(CC)CCCNc1nc2cc(OC)c(OC)cc2c2nc(-c3ccccc3)nn12	-33.3% (inactive)	–
CCOC(=O)c1ccc(Oc2cc(C)nc(SC)n2)cc1	–	3.39
Cc1cc(C)nc(/N=C(\N)Nc2ccc(OCc3ccccc3)cc2)n1	-33.3% (inactive)	–
COc1cccc(N2CCN(C(=O)c3ccc(CS(=O)c4ccc(C)cc4)o3)CC2)c1 (stereo unspecified)	0% (inactive)	–
O=C1CCN(Cc2ccccc2)c2cc3ccccc3cc21	0% (inactive)	–
COc1ccc(NC(=O)C(=O)c2cn(CC(=O)N3CCCC3)c3ccccc23)cc1	-33.3% (inactive)	–
O=C(Cc1ccccc1)c1nnc(-c2ccccc2)o1	33.3% (inactive)	–
CC(=O)N1CCC(=O)c2cc3ccccc3cc21	33.3% (inactive)	–
Cc1cc(=O)[nH]c(N/N=C/c2cc(C)n(CC(F)(F)F)c2C)n1	0% (inactive)	–
CCOC(=O)COc1cccc2c(=O)n(CC(=O)NCc3ccccc3)ccc12	0% (inactive)	–

SMILES	luciferase activity increase [1]	AC40 [2] [µM]
O=C1CCNc2cc3ccccc3cc21	-66.7% (inactive)	–
COc1ccccc1OCC(=O)NNC(=O)c1ccoc1C	33.3% (inactive)	–
CCCCOc1ccccc1C1CC(=O)NC2=C1C(=O)CCC2 (stereo unspecified)	0% (inactive)	–
C/C(=N\NC(=O)c1c([N+](=O)[O-])c(C)nn1C)c1ccc(NC(=O)C2CCCC2)cc1	0% (inactive)	–
COc1cc(-c2nnc(SCC3(c4ccc(Br)cc4)OCCO3)o2)cc(OC)c1OC	–	0.93
Cc1cc(NC(=O)CSc2nc(-c3ccco3)cc(C(F)(F)F)n2)no1	0% (inactive)	–
CCCNS(=O)(=O)c1cccc(C(=O)OCc2cc(=O)oc3cc(OC)ccc23)c1	–	2.14
CC(=O)N[C@H]1[C@@H](O[C@@H]2OC(C[C@@H](O)C3O[C@@H](n4ccc(=O)[nH]c4=O)[C@H](O)[C@@H]3O)[C@H](O)[C@H](O)[C@H]2NC(=O)/C=C/CCCCCCCCCCC(C)C)O[C@H](CO)[C@@H](O)[C@@H]1O (stereo partly specified)	-50% (inactive)	–
Cc1ccc(/C=N/NC(=O)C2COc3ccccc3O2)s1 (stereo unspecified)	–	15.3
O=C(N/N=C/c1ccc(Cl)cc1)c1sccc1OCc1ccc(F)cc1	–	1.6
CC(=O)c1ccc(Oc2cc(C)nc(-n3nc(C)cc3C)n2)cc1	0% (inactive)	–
COc1cc(C(=O)NCCOc2cc(C)cc(C)c2)cc(OC)c1OC	33.3% (inactive)	–
CCOc1ccc(S(=O)(=O)NCc2ccccn2)cc1NC(=O)c1ccccc1F	0% (inactive)	–
CCCOC(=O)c1[nH]c2c(c1C)C(=O)CC(c1cccs1)C2 (stereo unspecified)	50% (inactive)	–
Cc1[nH][nH]c(=O)c1C(c1ccc(-c2ccc(Cl)c(Cl)c2)o1)c1c(C)[nH][nH]c1=O	0% (inactive)	–
Cc1ccc(Oc2ccc(S(=O)(=O)N3CCOCC3)cc2C(N)=O)c(-n2nc3ccccc3n2)c1	33.3% (inactive)	–
Cc1cccc(C)c1OCCNC(=O)C(=O)NCc1ccco1	33.3% (inactive)	–
COc1ccccc1-c1nnc(SCc2ccccc2)o1	–	0.632
CCOc1ccc(NC(=O)c2cc(OC)nc3ccccc23)cc1	0% (inactive)	–
CCN(CC)CCC(=O)Nc1cccc2c1C(=O)c1ccccc1C2=O	-33.3% (inactive)	–
COc1cc(Nc2c3c(nc4ccccc24)CCCC3)cc(OC)c1OC	0% (inactive)	–
COC(=O)c1cn(C(=O)c2ccc(OC)cc2)c2ccccc12	–	15.4
CCC1=Nc2cc(C(=O)NCCCOC)ccc2Sc2ccccc21	-33.3% (inactive)	–
